In ChEMBL document CHEMBL1201862, “PubChem BioAssay data set” (2004):
Activity calls are given as the source filed them. Rule as the data show it, for most assays here: actives have a measured EC50 and inactives only a lower limit.

Tests used:
Streptococcus = assay: GAS UMAA2166 growth inhibition – luminescence, BacTiterGlo, counter-screen for streptokinase expression inhibitor project, dose response (AID 1915); type: functional, organism-based;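 also: potency for reduction of bacterial viability or growth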
[1] = target: T1, RNA-binding protein pos-1 (Caenorhabditis elegans, UniProt G5EF15); assay: disruptors of C. elegans POS-1 RNA interaction – biochemical, fluorescence polarization, dose response (AID 1964);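 also: purified POS-1 fused to maltose binding protein made in E. coli; potency of compounds blocking POS-1 binding to fluorescent RNA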
T1 sequence (G5EF15 whole entry): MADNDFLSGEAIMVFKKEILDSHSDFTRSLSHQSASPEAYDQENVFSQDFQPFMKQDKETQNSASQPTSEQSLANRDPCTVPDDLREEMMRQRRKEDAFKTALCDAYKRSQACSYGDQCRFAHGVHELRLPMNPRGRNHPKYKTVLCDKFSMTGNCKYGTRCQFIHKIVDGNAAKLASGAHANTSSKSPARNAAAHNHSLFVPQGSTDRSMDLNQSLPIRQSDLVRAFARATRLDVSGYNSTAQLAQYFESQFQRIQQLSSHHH

[2] = target: T2, Zinc finger protein mex-5 (Caenorhabditis elegans, UniProt Q9XUB2); assay: potency of MEX-5 RNA-binding blockers – biochemical, C. elegans, fluorescence polarization, dose response (AID 1960)
T2 sequence (Q9XUB2 whole entry): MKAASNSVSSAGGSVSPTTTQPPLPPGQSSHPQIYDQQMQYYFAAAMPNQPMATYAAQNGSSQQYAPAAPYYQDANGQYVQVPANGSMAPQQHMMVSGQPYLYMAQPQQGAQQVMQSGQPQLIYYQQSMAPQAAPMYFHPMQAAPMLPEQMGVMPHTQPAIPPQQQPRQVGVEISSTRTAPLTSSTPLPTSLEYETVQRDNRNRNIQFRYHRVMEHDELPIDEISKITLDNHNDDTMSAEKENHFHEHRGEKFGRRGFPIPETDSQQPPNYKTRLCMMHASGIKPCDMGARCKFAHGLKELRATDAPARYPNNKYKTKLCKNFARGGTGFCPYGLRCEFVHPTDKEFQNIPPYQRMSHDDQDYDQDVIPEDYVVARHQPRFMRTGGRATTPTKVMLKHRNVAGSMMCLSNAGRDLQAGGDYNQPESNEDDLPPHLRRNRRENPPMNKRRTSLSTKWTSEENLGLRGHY

[3] = test system: Streptococcus sp. 'group A'; assay: Streptococcus pyogenes SK(-)GAS viability under kanamycin – luminescence, BacTiterGlo, confirmation, counter-screen for streptokinase expression inhibitor project, dose response (AID 1900); type: functional, organism-based
Streptokinase A = target: T3, Streptokinase A (Streptococcus pyogenes serotype M1, UniProt P10520); assay: viability-normalized secreted streptokinase activity reduction – plasminogen activation absorbance, OD405, dose response (AID 1914); type: functional, Streptococcus pyogenes M1 GAS;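 also: secreted streptokinase activity via plasminogen activation per viability signal from cell pellet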
T3 sequence (P10520 whole entry): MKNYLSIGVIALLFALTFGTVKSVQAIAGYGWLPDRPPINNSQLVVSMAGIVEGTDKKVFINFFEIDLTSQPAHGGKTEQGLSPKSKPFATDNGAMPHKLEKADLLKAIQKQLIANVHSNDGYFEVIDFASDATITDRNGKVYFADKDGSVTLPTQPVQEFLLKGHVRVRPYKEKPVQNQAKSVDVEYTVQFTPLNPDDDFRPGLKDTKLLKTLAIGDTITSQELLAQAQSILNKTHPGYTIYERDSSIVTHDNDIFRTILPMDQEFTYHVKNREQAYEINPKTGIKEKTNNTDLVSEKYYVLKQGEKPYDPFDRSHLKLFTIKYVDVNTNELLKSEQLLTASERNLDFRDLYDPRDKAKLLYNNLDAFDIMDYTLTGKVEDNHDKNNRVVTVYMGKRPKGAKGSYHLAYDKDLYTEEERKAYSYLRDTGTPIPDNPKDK

[4] = NIH-3T3 fibroblast cytotoxicity, dose response, cytotoxicity control, cell-based, fluorescence, Alamar Blue, secondary assay (AID 2327); type: functional;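 also: NIH-3T3 mouse fibroblasts cultured with fluconazole at 8 µg/mL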
[5] = non-specific 3'UTR reporter inhibition in Clone20-Shn3RL – cell-based, Renilla luciferase, cherry-picked, counter-screen for Shn3 inhibitor project, dose response (AID 624133); type: functional
[6] = fluconazole-exposed Candida albicans growth modulators – fluorescence, retest, confirmation (AID 2467); type: functional, cell-based
Protein RecA = target: T4, Protein RecA (Mycobacterium tuberculosis, UniProt P9WHJ3); assay: Fluorescence Cell-Free Homogeneous Dose Retest to Identify Inhibitors of RecA-Intein Splicing Activity. [Related pubchem assays (depositor defined):AID2097, AID2223, AID489010, AID492950]; type: functional
T4 sequence (P9WHJ3 whole entry): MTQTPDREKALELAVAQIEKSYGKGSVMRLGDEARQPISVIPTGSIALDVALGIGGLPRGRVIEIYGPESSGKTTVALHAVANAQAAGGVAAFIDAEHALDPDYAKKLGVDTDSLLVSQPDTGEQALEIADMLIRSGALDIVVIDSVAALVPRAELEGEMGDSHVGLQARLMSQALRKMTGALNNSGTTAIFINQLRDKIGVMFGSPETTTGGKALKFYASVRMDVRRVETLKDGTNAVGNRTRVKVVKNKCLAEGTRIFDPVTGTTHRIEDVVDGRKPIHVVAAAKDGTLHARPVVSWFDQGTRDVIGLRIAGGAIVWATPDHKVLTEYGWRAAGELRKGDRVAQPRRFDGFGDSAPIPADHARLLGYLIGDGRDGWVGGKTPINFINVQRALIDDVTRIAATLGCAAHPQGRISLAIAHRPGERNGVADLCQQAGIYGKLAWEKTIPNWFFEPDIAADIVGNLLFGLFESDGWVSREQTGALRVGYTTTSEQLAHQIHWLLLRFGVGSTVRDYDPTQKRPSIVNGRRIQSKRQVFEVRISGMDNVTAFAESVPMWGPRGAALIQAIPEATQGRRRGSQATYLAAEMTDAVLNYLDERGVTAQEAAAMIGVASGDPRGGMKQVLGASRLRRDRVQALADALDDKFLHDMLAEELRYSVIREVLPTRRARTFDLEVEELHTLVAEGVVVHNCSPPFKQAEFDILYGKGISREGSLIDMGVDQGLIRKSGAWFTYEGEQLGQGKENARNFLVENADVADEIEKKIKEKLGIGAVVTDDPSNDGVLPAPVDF

[7] = target: T5, Replicative DNA helicase DnaB (Mycobacterium tuberculosis, UniProt P9WMR3); assay: DnaB intein splicing inhibitors, dose response, biochemical, cell-free fluorescence (AID 449749); type: functional
T5 sequence (P9WMR3 whole entry): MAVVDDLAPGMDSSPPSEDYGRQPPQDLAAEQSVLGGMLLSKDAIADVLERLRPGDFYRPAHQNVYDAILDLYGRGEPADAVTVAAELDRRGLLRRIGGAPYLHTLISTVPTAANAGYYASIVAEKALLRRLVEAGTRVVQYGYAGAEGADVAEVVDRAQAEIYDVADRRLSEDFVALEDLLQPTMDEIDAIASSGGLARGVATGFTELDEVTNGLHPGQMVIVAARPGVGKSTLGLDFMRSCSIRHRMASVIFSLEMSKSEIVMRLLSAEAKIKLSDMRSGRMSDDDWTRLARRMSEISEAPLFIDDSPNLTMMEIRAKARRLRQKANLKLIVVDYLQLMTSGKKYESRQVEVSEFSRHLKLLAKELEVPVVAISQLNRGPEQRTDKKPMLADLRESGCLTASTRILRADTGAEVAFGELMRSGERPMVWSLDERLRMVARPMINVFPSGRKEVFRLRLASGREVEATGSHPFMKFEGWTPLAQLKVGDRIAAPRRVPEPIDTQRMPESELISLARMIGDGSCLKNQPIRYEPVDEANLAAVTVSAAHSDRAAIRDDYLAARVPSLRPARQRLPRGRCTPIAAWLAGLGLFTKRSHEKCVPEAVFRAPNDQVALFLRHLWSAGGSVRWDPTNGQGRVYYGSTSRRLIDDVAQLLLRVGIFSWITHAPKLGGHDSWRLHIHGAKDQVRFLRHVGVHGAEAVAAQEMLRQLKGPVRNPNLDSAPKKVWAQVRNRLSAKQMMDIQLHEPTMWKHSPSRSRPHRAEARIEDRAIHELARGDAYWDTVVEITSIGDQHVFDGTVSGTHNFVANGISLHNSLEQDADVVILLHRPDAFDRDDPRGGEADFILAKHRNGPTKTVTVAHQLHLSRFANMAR

[8] = loss of viability in HepG2 cells – cell-based, CellTiter-Glo, cherry-picked, cytotoxicity control for Shn3 inhibitor project, dose response (AID 624134); type: functional
[9] = target: Heat shock protein HSP 90-alpha (Homo sapiens, UniProt P07900); type: functional, organism-based
[10] = reduction of Shn3 3'UTR-driven luciferase in osteoblasts – cell-based, Clone20 osteoblasts, firefly luciferase, cherry-picked, dose response (AID 624132); type: functional;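 also: firefly luciferase luminescence from reporter carrying the Shn3 3'UTR in osteoblasts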
[11] = target: T6, Ubiquitin-conjugating enzyme E2 N (Homo sapiens, UniProt P61088); type: functional;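 also: Dose-response confirmation in a TR-FRET assay detecting UBC13-driven polyubiquitin chain formation, inhibition measured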
T6 sequence (P61088 whole entry): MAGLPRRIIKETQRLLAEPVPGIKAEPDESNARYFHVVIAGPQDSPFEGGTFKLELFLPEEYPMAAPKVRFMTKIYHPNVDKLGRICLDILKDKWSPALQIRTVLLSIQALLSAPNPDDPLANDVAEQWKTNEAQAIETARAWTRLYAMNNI

[12] = target: T7, Corticotropin-releasing factor receptor 2/Corticotropin-releasing factor-binding protein (Homo sapiens, UniProt P24387+Q13324); assay: activators of CRF receptor 2 with binding protein – uHTS hits, confirmation (AID 602473); type: functional; conditions: read-out: EC50_Mean
T7 sequence (Q13324 whole entry): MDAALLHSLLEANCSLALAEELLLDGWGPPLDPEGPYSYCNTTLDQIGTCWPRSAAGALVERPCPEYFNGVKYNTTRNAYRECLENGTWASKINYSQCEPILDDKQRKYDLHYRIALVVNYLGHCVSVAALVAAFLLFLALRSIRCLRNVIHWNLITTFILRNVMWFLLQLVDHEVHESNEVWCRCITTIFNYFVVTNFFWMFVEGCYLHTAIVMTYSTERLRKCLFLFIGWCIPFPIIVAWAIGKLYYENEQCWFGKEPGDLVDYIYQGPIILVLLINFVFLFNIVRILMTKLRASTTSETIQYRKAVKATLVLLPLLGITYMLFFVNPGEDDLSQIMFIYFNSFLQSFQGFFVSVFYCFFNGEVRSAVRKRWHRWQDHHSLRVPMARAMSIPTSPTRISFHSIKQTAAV
T7 sequence (P24387 whole entry): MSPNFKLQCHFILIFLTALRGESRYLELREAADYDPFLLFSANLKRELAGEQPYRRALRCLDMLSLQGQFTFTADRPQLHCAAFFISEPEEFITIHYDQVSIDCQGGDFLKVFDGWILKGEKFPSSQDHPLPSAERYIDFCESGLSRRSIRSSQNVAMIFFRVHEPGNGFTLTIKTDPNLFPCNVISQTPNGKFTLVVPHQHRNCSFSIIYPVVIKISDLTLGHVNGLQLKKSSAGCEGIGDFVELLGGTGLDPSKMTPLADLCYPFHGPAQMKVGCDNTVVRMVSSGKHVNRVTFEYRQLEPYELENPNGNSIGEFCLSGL

[13] = target: T7, Corticotropin-releasing factor receptor 2/Corticotropin-releasing factor-binding protein; assay: Dose Response confirmation of uHTS hits for small molecule antagonists of the CRF-binding protein and CRF-R2 receptor complex.; type: functional; conditions: read-out: IC50_Mean
[14] = Luminescence Cell-Based Dose Retest to Confirm Inhibitors of Cancer Stem Cells. [Related pubchem assays (depositor defined):AID2717, AID2721]; type: functional, Homo sapiens

In the case of CC1CCN(c2nc3ccccc3nc2C(C#N)C(=O)NC2CCCCC2)CC1 (stereo not drawn), the EC50 (Streptococcus) was 18.3 µM (active), the EC50 [1] was > 300 µM (not active) and the EC50 [2] was > 300 µM (not active). For the same compound, the EC50 ([3]; read-out: EC50) was 7.52 µM (active) and the EC50 (Streptokinase A) was 26.2 µM (active).

In the case of CN1CCN(C(c2ccc(Br)cc2)c2cc(Cl)c3cccnc3c2O)CC1 (stereo not drawn), the EC50 [4] was 4.78 µM (inconclusive), the AC50 [5] was 6.28 µM (active) and the EC50 [6] was 0.492 µM (active). The EC50 (Protein RecA) was 3.22 µM (active), the AC50 [7] was 14.3 µM (active) and the AC50 [8] was 34.9 µM (active). For the same compound, the AC50 [9] was 0.609 µM (active) and the AC50 [10] was 3.61 µM (active).

In the case of COc1ccc(OCC(=O)NNC(=S)NC(=O)c2ccc([N+](=O)[O-])cc2)cc1, the IC50 [11] was > 20 µM (inactive).

For O=C(C[n+]1nc(CNc2ccc(Br)cc2)n2c1CCCCC2)c1ccc([N+](=O)[O-])cc1, the IC50 [11] was > 20 µM (inactive).

In the case of CCc1nnc(N=C(S)Nc2ccccc2)s1, the EC50 [12] was > 53 µM (inactive) and the IC50 [13] was > 47.1 µM (inactive).

In the case of CCOC(=O)/C=c1\s/c(=C\c2ccc(C#N)cc2)c(=O)n1CC(=O)NCc1ccco1, the EC50 [1] was > 300 µM (not active) and the EC50 [2] was > 300 µM (not active).

For CC/C(=C(\c1ccccc1)c1ccc(OCCN(C)C)cc1)c1ccccc1 [TAMOXIFEN], the IC50 [11] was > 20 µM (inactive), the EC50 (Streptococcus) was 21.8 µM (active) and the AC50 [14] was 5.52 µM (active). For the same compound, the EC50 [3] was 6.5 µM (active) and the EC50 (Streptokinase A) was > 150 µM (not active).

For CC1CCCN(CCCNC(=O)CN2C(=O)CSc3ccc(S(=O)(=O)N4CCOCC4)cc32)C1 (stereo not drawn), the EC50 [12] was > 53 µM (inactive) and the IC50 [13] was > 47.1 µM (inactive).

In the case of Cc1ccc(-n2c(Cl)c(Cl)[nH]c(=O)c2=O)cc1, the EC50 [12] was > 53 µM (inactive) and the IC50 [13] was > 47.1 µM (inactive).
